The target in this test is HCV core protein (core106) dimerization, Hepatitis C virus. Put plainly: HCV core dimerization inhibitor potency, late-stage follow-up, biochemical, TR-FRET, dose response, powder samples (AID 2488). The note with it: GST/Flag-core106 dimerization, TR-FRET HTRF.

The results in this text go back to PubChem BioAssay AID2488 (The Scripps Research Institute Molecular Screening Center, 2010).

Active and inactive are the calls of the source.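 The calls were made as follows: active = IC50 at or below 10 µM; inactive = IC50 above 10 µM.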

By IC50 is commonly meant the midpoint of a concentration-inhibition curve. Take `Cc1ccc(Cc2c(C)nc3nc(SCC(=O)NCCCN4CCCCCC4)nn3c2C)cc1`: the IC50 was 3.67 µM. In the case of `Cc1ccccc1N1C(=O)/C(=C/c2ccco2)C(=O)NC1=S`, the IC50 result is “inactive”. Consider `CCN(CC(=O)Nc1c(F)cccc1F)C(=O)/C=C/c1ccc2ccccc2n1`, for which the IC50 result was “inactive”. As for `CCCCCC#CCC#CCC#CCC#CCCCC(=O)O`, the IC50 is > 49.8 µM (inactive). As for `CC1=C(/C=C/C(C)=C/C=C/C(C)=C/C=C/C=C(C)/C=C/C=C(C)/C=C/C2=C(C)CCCC2(C)C)C(C)(C)CCC1`, the IC50 was > 49.8 µM (inactive). For `COCCN(C(=O)COC(=O)c1cc2c(s1)CCC2)c1c(N)n(Cc2ccccc2)c(=O)[nH]c1=O`, the IC50 result is “inactive”.

For `COc1ccc(NC(=O)CN(C)C(=O)c2cc3c(s2)CCC3)cc1`, the IC50 result was “inactive”. Take `O=C(/C=C/c1ccc(Br)o1)OCc1nc2ccsc2c(=O)[nH]1`: the IC50 was > 49.8 µM (inactive).
